Test results as given in patent US20210137941A1 (ZARODEX THERAPEUTICS LIMITED, priority 2018, published 2021).
Where “and” joins values, the source holds several entries; their conditions need not be identical. Equal entries are not always repeated. Entries after “also recorded” stand apart in the source; their conditions may differ. Where two headings read alike, the source gives them in different places.

Legend:
[1] = test system: Immunoglobulin levels (IgG, IgA and IgM); assay: Referred clozapine patients (Immunology clinic): serum immunoglobulins; assay type: in vivo, human
[2] = test system: IgG to Haemophilus influenza B, Pneumococcus and Tetanus; settings: human, in vivo
[3] = test system: circulating total IgG, IgA, IgM and pneumococcus IgG; assay: Second observational study (interim analysis): circulating immunoglobulins; assay type: in vivo, human; settings: interim data
[4] = test system: circulating B cell subsets; assay: Second observational study (interim analysis): peripheral blood B cell subsets by FACS; assay type: in vivo, human; settings: interim data
[5] = test system: bone marrow B cell subsets; assay: Wild type mouse study: bone marrow B cell immunophenotyping by flow cytometry; assay type: in vivo, C57BL/6 mice
[6] = test system: T follicular helper cells (CD4+ PD1+ CXCR5+); assay: CIA model: T follicular helper cells in spleen and lymph node by FACS; assay type: in vivo, DBA/1 mice
Method: All experiments were approved by the Clinical Medicine Animal Welfare and Ethical Review Body (AWERB) and by the UK Home Office.
At the end of the experimental period, mice were humanely euthanised and bled by cardiac puncture to obtain blood samples for serum separation, storage at −80° C. and subsequent measurement of specific anti-collagen immunoglobulin (IgG1 and IgG2a isotypes) by ELISA. In parallel, spleen and inguinal lymph nodes were harvested for evaluation of cellular composition across these compartments using multi-laser flow cytometric detection and analysis. Numbers of B cell subsets in spleen and lymph nodes were determined by FACS.
Data were analyzed by one-way ANOVA with Tukey's or Dunnett's multiple comparison test or two-way ANOVA with Tukey's multiple comparison test as appropriate. All calculations were made using GraphPad Prism software. A P value less than 0.05 was considered significant.

[7] = test system: B cell subsets (class switched memory B cells, plasmablasts); settings: for CSMB after stopping clozapine: one patient, 24 months after clozapine cessation (from 1.58%)
[8] = 13 referred patients on clozapine
[9] = 13 referred patients, clozapine 200-750 mg, duration >4 to 21 years (two had stopped), one line per patient

## CN1CCN(C2=Nc3cc(Cl)ccc3Nc3ccccc32)CC1 [Clozapine, clozapine]
[1]; [8]
  mean IgA, referred patients: 0.34 g/L
  mean IgG, referred patients: 3.6 g/L
  mean IgM, referred patients: 0.21 g/L
[1]; [9]
  serum IgA, individual referred patients: IgA 0.54 g/L and <0.22 g/L (6×) and IgA 0.49 g/L and IgA 0.38 g/L and undetect- and IgA 0.26 g/L and IgA 0.81 g/L and IgA 0.63 g/L
  serum IgG, individual referred patients: IgG 4.8 g/L and <1.34 g/L (2×) and IgG 5.24 g/L and IgG 2.68 g/L and IgG 2.98 g/L and IgG 1.2 g/L and IgG 3.3 g/L and IgG 2.38 g/L and IgG 4.24 g/L and IgG 6.65 g/L and IgG 5.61 g/L and IgG 4.79 g/L
  serum IgM, individual referred patients: IgM 0.3 g/L and <0.17 g/L (7×) and 0.41 g/L (2×) and 0.23 g/L and 0.07 g/L and 0.18 g/L
[1]; 13 referred patients, clozapine 200-750 mg, duration >4 to 21 years (two had stopped), one line per patient, listed as clozapine
  serum IgG, individual referred patients: 3.3 g/L
[1]; FIG. 5, gradual recovery over 3 years
  serum IgG post-discontinuation of clozapine: 5.95 g/L
[1]; FIG. 5, start of recovery
  serum IgG at discontinuation of clozapine: 3.5 g/L
[1]; FIG. 5 / one patient over 24 months
  IgA and IgM following cessation of clozapine: without clear improvement; also recorded: remained low
[1]; one patient, 24 months after clozapine cessation
  serum IgM after stopping clozapine: 0.49 after 24 months
[1]; one patient, within 24 months after cessation
  serum IgG after stopping clozapine, intermediate value: 4.8 g/L
[2]
  individuals failing to develop a pneumococcal IgG response above 50 mg/L: 73%
  individuals failing to exceed 0.1 IU/mL post-vaccination Tetanus-IgG level: 1/12
  individuals failing to mount a Haemophilus-IgG response of at least 1 mcg/ml: 42%
  patients with IgG to Haemophilus influenza B (HiB) <1 mcg/ml: 75%
  patients with Pneumococcus-IgG <50 mg/L: 94%
  patients with Tetanus-IgG <0.1 IU/mL: 38%
  patients with impaired responses to vaccination: 10/11
  vaccine response, individual referred patients: Failure to responds to; also recorded: Non-durable
[3]; FIG. 6A-C
  levels of circulating total IgG, IgA and IgM vs clozapine naive control: Significantly reduced levels
[3]; FIG. 7
  IgG antibodies against pneumococcus vs control: trend to lower
[4]; FIG. 8A-B
  overall CD19+ B cell numbers vs control: not significantly different
[4]; FIG. 9A-C
  naive (CD19+CD27-) B cells as a proportion of total CD19+ B cells: Small increase
[4]; FIG. 10A-C
  overall memory B cell pool: without perturbation
[4]; FIG. 12A-C
  IgM hi IgD lo memory B cell subpopulation: without perturbation
[4]; FIG. 14A-C
  circulating levels of marginal zone B cells: No significant difference
[4]; P=0.06 vs control, FIG. 11A-C
  class-switched memory B cells (CD27+ IgM- IgD- as % B): Strong trends to a specific reduction
[4]; P=0.07 vs control clozapine naive, FIG. 15A-C
  levels of plasmablasts: Strong trends to reduction
[5]; 10 mg/kg IP, 21 days, FIG. 18
  pro-B cell fraction in bone marrow: without any change
  proportion of pre-pro B cells in bone marrow: significant increase
[5]; 5 and 10 mg/kg IP, 21 days, significant, FIG. 20
  reduction in the percentage of long-lived plasma cells in the bone marrow compared to control: ~30%
[5]; IP 21 days, FIG. 19
  percentage of immature B cells in bone marrow: reduction
[5]; any dose (2.5, 5, 10 mg/kg IP, 21 days), FIG. 18
  overall B cells in the bone marrow: No overall reduction
[5]; dose-dependent, significant vs control from 2.5 mg/kg, IP 21 days, FIG. 19
  pre-B cells in bone marrow: reduction
[5]; reaching significance for the 5 mg/kg dose, FIG. 19
  percentage of proliferating pre-B cells in bone marrow: diminished
[6]; 5 or 10 mg/kg from day 1 or day 15, FIG. 34
  proportions of CD4+PD1+CXCR5+ T follicular helper cells in lymph node or spleen: did not significantly affect
[6]; all doses and time points, FIG. 35
  expression of PD-1 (MFI) in lymph node T follicular helper cells: Reduced expression
[6]; dosed from day 1, lymph node and spleen, FIG. 36
  CXCR5 expression (MFI) on T follicular helper cells: significant reductions
[6]; lymph node and spleen, FIG. 37
  expression of CCR7 on germinal centre resident T follicular helper cells: reduction in expression
[7]; FIG. 3B
  marginal zone B cell numbers vs healthy control: no significant difference
  total B cell numbers vs CVID and healthy controls: similar
[7]; class switched memory B cells as % of CD19+ cells, one line per patient, listed as clozapine
  CSMB (6.5-29.1%), individual referred patients: 1.58%
[7]; human, in vivo
  overall lymphopenia / B cell lymphopenia: no severe overall lymphopenia or B cell lymphopenia
[7]
  CSMB after stopping clozapine: CSMB rose to 2.77%
[7]; listed as clozapine
  CSMB after stopping clozapine: 2.77%
[7]; reference range 6.5-29.1%, p<0.0001 vs healthy controls, FIG. 3A
  mean percentage of CSMB, referred patients: 1.87%
